Columns and labels:
TRβ = target: T1, TRβ (Homo sapiens, UniProt P10828); experiment: LanthaScreen TR-FRET Thyroid Receptor beta Coactivator Assay (in vitro binding activity); details: TR beta-LBD
T1 construct: 5 μL of 4×TR beta/alfa-LBD; purchased Invitrogen PV4686
T1 sequence (P10828 217-461 limits assumed): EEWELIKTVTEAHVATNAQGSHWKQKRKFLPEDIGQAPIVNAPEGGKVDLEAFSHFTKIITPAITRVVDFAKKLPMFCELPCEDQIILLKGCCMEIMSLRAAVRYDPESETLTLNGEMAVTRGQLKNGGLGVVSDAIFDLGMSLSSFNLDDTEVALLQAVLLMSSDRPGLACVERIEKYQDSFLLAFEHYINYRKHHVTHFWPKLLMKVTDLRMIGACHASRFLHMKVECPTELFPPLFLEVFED
Experimental: (§1) 2. Detection of the Binding Activity of the Compound of the Present Invention to TRα or TRβ In Vitro
(§2) Test Materials • LanthaScreen TR-FRET Thyroid Receptor beta Coactivator Assay kit was purchased from Invitrogen, Cat. No. PV4686; • LanthaScreen TR-FRET Thyroid Receptor alfa Coactivator Assay kit was purchased from Invitrogen, Cat. No. PV4687.
(§3) The method was experimented with LanthaScreen TR-FRET Thyroid Receptor beta/alfa Coactivator Assay kit. The test compound was dissolved in DMSO and diluted 3 times to a total of 10 concentrations, and then diluted with TR-FRET Coregulator Buffer C in the kit to form a solution containing 2% DMSO, 10 μL of the solution containing 2% DMSO was taken into a 384-well plate, then 5 μL of 4×TR beta/alfa-LBD, 5 μL of a mixture containing 0.4 μM fluorescein-SRC2-2 and 8 nM Tb anti-GST antibody were added into each well, mixed thoroughly, and incubated at room temperature for 1 h in the dark. After 1 h, BMG LABTECH's PHERAstar FSX microplate reader was used to read the fluorescence value (RFU) at […]. The TR-FRET ratio was calculated by dividing the emission signal at 520 nm by the emission signal at 495 nm. Graph Pad Prism 5 software was used to draw the curve and calculate the EC50 value. The in vitro binding activity test results of some of the compounds of the examples of the present invention are shown in Table 1 below.

TRα = target: T2, TRα (Homo sapiens, UniProt P10827); experiment: LanthaScreen TR-FRET Thyroid Receptor alfa Coactivator Assay (in vitro binding activity); details: TR alfa-LBD
T2 construct: 5 μL of 4×TR beta/alfa-LBD; purchased Invitrogen PV4687
Experimental: as §1, §2, §3

T2 sequence (P10827 163-410 isoform P10827-2 limits assumed, other chains not shown): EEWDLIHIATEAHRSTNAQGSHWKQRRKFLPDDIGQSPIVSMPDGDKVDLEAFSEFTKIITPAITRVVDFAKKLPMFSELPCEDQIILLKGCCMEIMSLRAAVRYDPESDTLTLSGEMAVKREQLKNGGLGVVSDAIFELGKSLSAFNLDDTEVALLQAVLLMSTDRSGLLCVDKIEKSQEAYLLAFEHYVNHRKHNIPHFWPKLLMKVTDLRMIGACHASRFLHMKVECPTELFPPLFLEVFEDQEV

SMILES	EC50 (TRβ)	EC50 (TRα)
N#Cc1nn(-c2cc(Cl)c(Oc3ccc4c(c3)C(=O)NCC4)c(Cl)c2)c(=O)[nH]c1=O [Example 9, 2-(3,5-dichloro-4-((1-oxo-1,2,3,4-tetrahydroisoquinolin-7-yl)oxy)phenyl)-3,5-dioxo-2,3,4,5-tetrahydro-1,2,4-triazine-6-carbonitrile]	> 10 µM	> 100 µM
N#Cc1nn(-c2cc(Cl)c(Oc3ccc4c(c3)CCN(c3ccc(F)cc3)C4=O)c(Cl)c2)c(=O)[nH]c1=O [Example 28g]	0.128 µM	> 100 µM
O=C1c2ccc(Oc3c(Cl)cc(-n4ncc(=O)[nH]c4=O)cc3Cl)cc2CCN1Cc1ccc(F)c(F)c1 [Example 30, 2-(3,5-dichloro-4-((2-(3,4-difluorobenzyl)-1-oxo-1,2,3,4-tetrahydroisoquinolin-6-yl)oxy)phenyl)-1,2,4-triazine-3,5(2H,4H)-dione]	0.0062 µM	0.093 µM
O=C1NCCc2cc(Oc3c(Cl)cc(-n4ncc(=O)[nH]c4=O)cc3Cl)ccc21 [Example 17, 2-(3,5-Dichloro-4-((1-oxo-1,2,3,4-tetrahydroisoquinolin-6-yl)oxy)phenyl)-1,2,4-triazine-3,5(2H,4H)-dione]	0.034 µM	0.311 µM
N#Cc1nn(-c2cc(Cl)c(Oc3ccc4c(c3)CCCNC4=O)c(Cl)c2)c(=O)[nH]c1=O [Example 7, 2-(3,5-Dichloro-4-((1-oxo-2,3,4,5-tetrahydro-2H-benzo[c]azepin-7-yl)oxy)phenyl)-3,5-dioxo-2,3,4,5-tetrahydro-1,2,4-triazine-6-carbonitrile]	0.092 µM	0.95 µM
CCN1CCc2cc(Oc3c(Cl)cc(-n4nc(C#N)c(=O)[nH]c4=O)cc3Cl)ccc2C1=O [Example 5, 2-(3,5-dichloro-4-((2-ethyl-1-oxo-1,2,3,4-tetrahydroisoquinolin-6-yl)oxy)phenyl)-3,5-dioxo-2,3,4,5-tetrahydro-1,2,4-triazine-6-carbonitrile]	0.014 µM	0.074 µM
Cc1cc(-n2nc(C#N)c(=O)[nH]c2=O)cc(C)c1Oc1ccc2c(c1)CCNC2=O [Example 26, 2-(3,5-dimethyl-4-((1-oxo-1,2,3,4-tetrahydroisoquinolin-6-yl)oxy)phenyl)-3,5-dioxo-2,3,4,5-tetrahydro-1,2,4-triazine-6-carbonitrile]	0.476 µM	7.04 µM
CN1CCc2cc(Oc3c(Cl)cc(-n4nc(C#N)c(=O)[nH]c4=O)cc3Cl)ccc2C1=O [Example 2, 2-(3,5-dichloro-4-((2-methyl-1-oxo-1,2,3,4-tetrahydroisoquinolin-6-yl)oxy)phenyl)-3,5-dioxo-2,3,4,5-tetrahydro-1,2,4-triazine-6-carbonitrile]	0.1 µM	1.47 µM
O=C1c2ccc(Oc3c(Cl)cc(-n4ncc(=O)[nH]c4=O)cc3Cl)cc2CCN1Cc1ccccc1 [Example 22, 2-(4-((2-benzyl-1-oxo-1,2,3,4-tetrahydroisoquinolin-6-yl)oxy)-3,5-dichlorophenyl)-1,2,4-triazine-3,5(2H,4H)-dione]	0.011 µM	0.156 µM
O=C1c2ccc(Oc3c(Cl)cc(-n4ncc(=O)[nH]c4=O)cc3Cl)cc2CCN1Cc1cccnn1 [Example 25, 2-(3,5-dichloro-4-((1-oxo-2-(pyridazin-3-ylmethyl)-1,2,3,4-tetrahydroisoquinolin-6-yl)oxy)phenyl)-1,2,4-triazine-3,5(2H,4H)-dione]	0.241 µM	> 100 µM
N#Cc1nn(-c2cc(Cl)c(Oc3ccc4c(=O)[nH]ccc4c3)c(Cl)c2)c(=O)[nH]c1=O [Example 19, 2-(3,5-Dichloro-4-((1-oxo-1,2-dihydroisoquinolin-6-yl)oxy)phenyl)-3,5-dioxo-2,3,4,5-tetrahydro-1,2,4-triazine-6-carbonitrile]	0.501 µM	> 100 µM
COCCN1CCc2cc(Oc3c(Cl)cc(-n4nc(C#N)c(=O)[nH]c4=O)cc3Cl)ccc2C1=O [Example 10, 2-(3,5-Dichloro-4-((2-(2-methoxyethyl)-1-oxo-1,2,3,4-tetrahydroisoquinolin-6-yl)oxy)phenyl)-3,5-dioxo-2,3,4,5-tetrahydro-1,2,4-triazine-6-carbonitrile]	0.049 µM	0.206 µM
CCOC(C)N1CCc2cc(Oc3c(Cl)cc(-n4nc(C#N)c(=O)[nH]c4=O)cc3Cl)ccc2C1=O (stereo not drawn) [Example 16, 2-(3,5-dichloro-4-((2-(1-ethoxyethyl)-1-oxo-1,2,3,4-tetrahydroisoquinolin-yl)oxy)phenyl)-3,5-dioxo-2,3,4,5-tetrahydro-1,2,4-triazine-6-carbonitrile]	0.022 µM	0.211 µM
N#Cc1nn(-c2cc(Cl)c(Oc3ccc4c(c3)CCN(Cc3ccc(F)cc3)C4=O)c(Cl)c2)c(=O)[nH]c1=O [Example 20d, 2-(3,5-dichloro-4-((2-(4-fluorobenzyl)-1-oxo-1,2,3,4-tetrahydroisoquinolin-6-yl)oxy)phenyl)-3,5-dioxo-2,3,4,5-tetrahydro-1,2,4-triazine-6-carbonitrile]	0.534 µM	> 100 µM
N#Cc1nn(-c2cc(Cl)c(Oc3ccc4c(c3)CCN(Cc3ccccc3)C4=O)c(Cl)c2)c(=O)[nH]c1=O [Example 18, 2-(4-((2-Benzyl-1-oxo-1,2,3,4-tetrahydroisoquinolin-6-yl)oxy)-3,5-dichlorophenyl)-3,5-dioxo-2,3,4,5-tetrahydro-1,2,4-triazine-6-carbonitrile]	0.192 µM	> 100 µM

Second part, the molecule after the results:

EC50 (TRβ)	EC50 (TRα)	SMILES
0.12 µM	0.274 µM	O=C1c2ccc(Oc3c(Cl)cc(-n4ncc(=O)[nH]c4=O)cc3Cl)cc2CCN1c1ncccn1 [Example 50, 2-(3,5-dichloro-4-((1-oxo-2-(pyrimidin-2-yl)-1,2,3,4-tetrahydroisoquinolin-6-yl)oxy)phenyl)-1,2,4-triazine-3,5(2H,4H)-dione]
0.035 µM	> 100 µM	Cc1ccc(F)cc1CN1CCc2cc(Oc3c(Cl)cc(-n4nc(C#N)c(=O)[nH]c4=O)cc3Cl)ccc2C1=O [Example 40d, 2-(3,5-dichloro-4-((2-(5-fluoro-2-methylbenzyl)-1-oxo-1,2,3,4-tetrahydroisoquinolin-6-yl)oxy)phenyl)-3,5-dioxo-2,3,4,5-tetrahydro-1,2,4-triazine-6-carbonitrile]
0.0046 µM	0.181 µM	O=C1c2ccc(Oc3c(Cl)cc(-n4ncc(=O)[nH]c4=O)cc3Cl)cc2CCN1Cc1cc(F)cc(F)c1 [Example 32, 2-(3,5-dichloro-4-((2-(3,5-difluorobenzyl)-1-oxo-1,2,3,4-tetrahydroisoquinolin-6-yl)oxy)phenyl)-1,2,4-triazine-3,5(2H,4H)-dione]
0.039 µM	0.161 µM	O=C1c2ccc(Oc3c(Cl)cc(-n4ncc(=O)[nH]c4=O)cc3Cl)cc2CCN1c1ccccn1 [Example 47]
0.472 µM	> 100 µM	N#Cc1nn(-c2cc(Cl)c(Oc3ccc4c(c3)CCN(CO)C4=O)c(Cl)c2)c(=O)[nH]c1=O [Example 39, 2-(3,5-dichloro-4-((2-(hydroxymethyl)-1-oxo-1,2,3,4-tetrahydroisoquinolin-6-yl)oxy)phenyl)-3,5-dioxo-2,3,4,5-tetrahydro-1,2,4-triazine-6-carbonitrile]
0.065 µM	0.558 µM	O=C1c2ccc(Oc3c(Cl)cc(-n4ncc(=O)[nH]c4=O)cc3Cl)cc2CCN1c1ccncc1 [Example 48, 2-(3,5-dichloro-4-((1-oxo-2-(pyridin-4-yl)-1,2,3,4-tetrahydroisoquinolin-6-yl)oxy)phenyl)-1,2,4-triazine-3,5(2H,4H)-dione]
0.034 µM	> 100 µM	N#Cc1nn(-c2cc(Cl)c(Oc3ccc4c(c3)CCN(Cc3cccc(F)c3)C4=O)c(Cl)c2)c(=O)[nH]c1=O [Example 31d, 2-(3,5-dichloro-4-((2-(3-fluorobenzyl)-1-oxo-1,2,3,4-tetrahydroisoquinolin-6-yl)oxy)phenyl)-3,5-dioxo-2,3,4,5-tetrahydro-1,2,4-triazine-6-carbonitrile]
0.054 µM	> 100 µM	N#Cc1nn(-c2cc(Cl)c(Oc3ccc4c(c3)CCN(Cc3cc(F)cc(F)c3)C4=O)c(Cl)c2)c(=O)[nH]c1=O [Example 32d, 2-(3,5-Dichloro-4-((2-(3,5-difluorobenzyl)-1-oxo-1,2,3,4-tetrahydroisoquinolin-6-yl)oxy)phenyl)-3,5-dioxo-2,3,4,5-tetrahydro-1,2,4-triazine-6-carbonitrile]
< 0.0046 µM	< 0.046 µM	N#Cc1nn(-c2cc(Cl)c(Oc3ccc4c(c3)CCN(CC3CC3)C4=O)c(Cl)c2)c(=O)[nH]c1=O [Example 38, 2-(3,5-dichloro-4-((2-(cyclopropylmethyl)-1-oxo-1,2,3,4-tetrahydroisoquinolin-6-yl)oxy)phenyl)-3,5-dioxo-2,3,4,5-tetrahydro-1,2,4-triazine-6-carbonitrile]

From patent publication US20240025875A1, “A COMPOUND AS A THYROID HORMONE BETA RECEPTOR AGONIST AND USE THEREOF” (SUNSHINE LAKE PHARMA CO., LTD., priority 2020, published 2024)
